# Assay results taken from paper PMC8158775, “Structure–Activity Relationship Assessment of Sophorolipid Ester Derivatives against Model Bacteria Strains” (Molecules, 2021).
# Entries after “also recorded” stand apart in the source; their conditions may differ. Where two headings read alike, the source gives them in different places.
# Experiments:
# [1] = system: Bacillus subtilis (ATCC 21332); assay: Minimum inhibitory concentration (microdilution); assay type: cell-based; conditions: read-out: MIC B. subtilis
# Method: (§1) Bacteria strains Staphylococcus aureus (ATCC 33807), Bacillus cereus (ATCC 4342), Bacillus subtilis (ATCC 21332), Listeria innocua (ATCC 33090), and Escherichia coli (ATCC 53323) were provided by Ravi Kane’s lab at Rensselaer Polytechnic Institute. Mueller–Hinton broth (MHB) was used for the Staphylococcus aureus culture, while tryptic soy broth (TSB) was used for the other strains. All strains were grown to the stationary phase for 24 h at 37 °C with agitation at 220 rpm. After overnight incubation, cultures were diluted to 5 × 10^6 CFU/mL prior to use.
# (§2) The minimum inhibitory concentration (MIC) was determined using the microdilution technique. Modified sophorolipid (SL) derivatives were dissolved in DMSO to make 2 M stock solutions. A dilution series was made by diluting the stock solution to a range of concentrations from 200 µM to 4 µM and a final volume of 100 μL in 10% DMSO/phosphate-buffered saline (PBS) in each well of a 96-well plate. Bacterial inocula (100 μL, 5 × 10^6 CFU/mL) were added to each well, and the final DMSO concentration was 5%. Wells containing the same volumes of DMSO/PBS buffer and culture medium, with and without bacteria, were used as positive and negative controls, respectively. Streptomycin was used for comparison. The plate was then incubated with shaking for 16–30 h at 37 °C to ensure that cultures had reached stationary phase growth and the absorbance readings were recorded at a wavelength of 600 nm using an absorbance microplate reader. Absorbance data from 16–30 h were used to calculate the percent inhibition for each test condition. MIC was recorded as the lowest concentration of drug that inhibited more than 90% of bacterial growth. All assays were carried out in triplicate.
# [2] = system: Listeria innocua (ATCC 33090); assay: Minimum inhibitory concentration (microdilution); assay type: cell-based; conditions: read-out: MIC L. innocua
# Method: as §1, §2
# [3] = system: Bacillus cereus (ATCC 4342); assay: Minimum inhibitory concentration (microdilution); assay type: cell-based; conditions: read-out: MIC B. cereus
# Method: as §1, §2
# [4] = system: Escherichia coli (ATCC 53323); assay: Minimum inhibitory concentration (microdilution); assay type: cell-based; conditions: read-out: MIC E. coli
# Method: as §1, §2
# [5] = system: Staphylococcus aureus (ATCC 33807); assay: Minimum inhibitory concentration (microdilution); assay type: cell-based; conditions: read-out: MIC S. aureus
# Method: as §1, §2
# [6] = system: M1 activated macrophages (AMOs) from Raw 254.7 murine macrophages; assay: In vitro cytotoxicity study; assay type: cell-based; conditions: for cytotoxicity ranking: comparison within SL series
# Text: A potential antimicrobial candidate must selectively kill pathogen cells without harming the host mammalian cells. To test the ability of SLs to effectively discriminate between bacteria and mammalian cells, a cytotoxicity assay was previously reported by our team. […] The therapeutic index (TI) is a parameter commonly used to determine potential drug selectivity. […] Generally, membrane-active agents are not considered for systemic administration directly, because of relatively low selectivity. Thus, designing suitable formulations and selecting suitable dose ranges are important in drug development.
# B. cereus cell membrane = assay: Dye leakage / membrane depolarization assay with diS-C3(5); assay type: cell-based, Bacillus cereus; conditions: 40 μg/mL (58–60 μM), t = 60 min, diS-C3(5) probe; listed as LSL
# Method: To probe the role of LSL and the SL-esters as membrane-active agents, dye leakage experiments were carried out. Polymyxin B, a well-known membrane-active agent, was used as a positive control. Polymyxin B is a cyclic peptide with long, hydrophobic tails that can insert into cell membranes causing cell lysis. First, time-course membrane-depolarizing studies were conducted (Figure 3A). […] Upon addition of B. cereus cells at 2 min, a rapid decay in fluorescence intensity was observed due to self-quenching caused by migration of the probe into membranes. Subsequent addition of the SL-esters at 4 min led to a sharp increase in the fluorescence signal, thus indicating enhanced permeability of the cell membrane driven by the presence of the SL derivative.
# The disruption of bacterial membranes after treatment with LSL and SL-ester derivatives was tested using a fluorescence probe, diS-C3(5), which can be quenched by the electrically polarized membrane. B. Cereus grown to mid-log phase was adjusted to 2.5 × 10^6 CFU/mL in fresh MHB. […] Fluorescence data were recorded at 670 nm with excitation at 622 nm on Molecular Devices SPECTRAmax Plus 384 UV-VIS High Throughput Microplate Spectrophotometer and normalized against the negative control.
# [7] = Bacillus subtilis, ATCC21332, incubation time 16 h, lowest concentration inhibiting more than 90% of bacterial growth
# [8] = Listeria innocua, ATCC33090, incubation time 30 h, lowest concentration inhibiting more than 90% of bacterial growth
# [9] = Bacillus cereus, ATCC4342, incubation time 16 h, lowest concentration inhibiting more than 90% of bacterial growth
# [10] = Escherichia coli, ATCC53323, incubation time 16 h, lowest concentration inhibiting more than 90% of bacterial growth
# [11] = Staphylococcus aureus, ATCC33807, incubation time 16 h, lowest concentration inhibiting more than 90% of bacterial growth
# [12] = 16 h incubation, procedure of ref 17
# [13] = incubation time 16 h, lowest concentration inhibiting more than 90% of bacterial growth
# [14] = incubation time 30 h, lowest concentration inhibiting more than 90% of bacterial growth
Structure (SMILES),"MIC [1, 7]","MIC [2, 8]","MIC [3, 9]","MIC [4, 10]","MIC [5, 11]",further results
"CCOC(=O)CCCCCCC/C=C\CCCCCCC(C)OC1OC(CO)C(O)C(O)C1OC1OC(COC(C)=O)C(O)C(O)C1O (stereo not shown) [ESL-(6′OH, 6″Ac)]",25 µM,25 µM,25 µM,> 200 µM,–,–
"[H]/N=C(/N)N[C@H]1[C@H](O)[C@@H](O)[C@H](O[C@@H]2O[C@@H](C)[C@](O)(C=O)[C@H]2O[C@@H]2O[C@@H](CO)[C@H](O)[C@@H](O)[C@@H]2NC)[C@@H](N/C(N)=N\[H])[C@@H]1O [Streptomycin, reference compound]",12 µM,24 µM,12 µM,12 µM,3 µM,–
CCCCCOC(=O)CCCCCCC/C=C\CCCCCCC(C)OC1OC(CO)C(O)C(O)C1OC1OC(CO)C(O)C(O)C1O (stereo not shown) [SL-pentyl ester],> 200 µM,12 µM,12 µM,> 200 µM,> 200 µM,–
CCCCOC(=O)CCCCCCC/C=C\CCCCCCC(C)OC1OC(CO)C(O)C(O)C1OC1OC(CO)C(O)C(O)C1O (stereo not shown) [SL-butyl ester],12 µM,12 µM,12 µM,> 200 µM,100 µM,"concentration up to which low to no cytotoxicity [6, 12]: 100 to 200 µM; MIC [1, 13]: 12 µM; MIC [2, 14]: 12 µM; MIC [3, 13]: 12 µM; MIC [5, 13]: 100 µM"
CCCOC(=O)CCCCCCC/C=C\CCCCCCC(C)OC1OC(CO)C(O)C(O)C1OC1OC(CO)C(O)C(O)C1O (stereo not shown) [SL-propyl ester],25 µM,25 µM,25 µM,> 200 µM,100 µM,"concentration up to which low to no cytotoxicity [6, 12]: 100 to 200 µM"
COC(=O)CCCCCCC/C=C\CCCCCCC(C)OC1OC(CO)C(O)C(O)C1OC1OC(CO)C(O)C(O)C1O (stereo not shown) [SL-methyl ester],–,–,–,–,–,"cell reduction ([6]; 400 µM, 16 h incubation, procedure of ref 17): no significant cell reduction; cytotoxicity ranking [6]: lowest toxicity; MIC ([1]; Bacillus subtilis, ATCC21332, 16 h): 50 µM; MIC [1, 13]: 50 µM; MIC ([2]; Listeria innocua, ATCC33090, 30 h): 100 µM; MIC [2, 14]: 100 µM; MIC ([3]; Bacillus cereus, ATCC4342, 16 h): 50 µM; MIC [3, 13]: 50 µM; MIC ([4]; Escherichia coli, ATCC53323, 16 h): > 200 µM; MIC ([5]; Staphylococcus aureus, ATCC33807, 16 h): 200 µM; MIC [5, 13]: 200 µM"
"CCOC(=O)CCCCCCC/C=C\CCCCCCC(C)OC1OC(COC(C)=O)C(O)C(O)C1OC1OC(CO)C(O)C(O)C1O (stereo not shown) [ESL-(6′Ac, 6″OH)]",25 µM,25 µM,25 µM,> 200 µM,–,–
CCCCCCOC(=O)CCCCCCC/C=C\CCCCCCC(C)OC1OC(CO)C(O)C(O)C1OC1OC(CO)C(O)C(O)C1O (stereo not shown) [SL-hexyl ester],> 200 µM,> 200 µM,> 200 µM,> 200 µM,> 200 µM,"MIC [1, 13]: > 200 µM; MIC [2, 14]: > 200 µM; MIC [3, 13]: > 200 µM; MIC [5, 13]: > 200 µM"
CCOC(=O)CCCCCCC/C=C\CCCCCCC(C)OC1OC(CO)C(O)C(O)C1OC1OC(CO)C(O)C(O)C1O (stereo not shown) [SL-ethyl ester],50 µM,50 µM,50 µM,> 200 µM,200 µM,"concentration up to which low to no cytotoxicity [6, 12]: 100 to 200 µM"
"CC(=O)OCC1OC2OC(C)CCCCCC/C=C\CCCCCCCC(=O)OC3C(COC(C)=O)OC(OC2C(O)C1O)C(O)C3O (stereo not shown) [Lactonic SL, reference compound]",12 µM,50 µM,25 µM,> 200 µM,25 µM,"reduction in cell viability ([6]; at 50 µM, procedure of ref 17): roughly 50%; cytotoxicity ranking [6]: highest cytotoxicity; MIC [4, 13]: > 200 µM; ability to enhance cell membrane permeability (endpoint fluorescence) (B. cereus cell membrane): non-significant ability to enhance cell membrane permeability; also recorded: failed to enhance membrane permeability"
"CCOC(=O)CCCCCCC/C=C\CCCCCCC(C)OC1OC(COC(C)=O)C(O)C(O)C1OC1OC(COC(C)=O)C(O)C(O)C1O (stereo not shown) [ESL-(6′Ac, 6″Ac)]",> 200 µM,> 200 µM,12 µM,> 200 µM,–,–
